Test results reported in PubChem BioAssay AID434951 (Broad Institute, 2010).
Active and inactive are the calls of the source.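 The calls were made as follows: active = a fitted half-maximal concentration EC50 for the rise in nuclear signal no higher than ten times the top dose tested; inconclusive = flat fit with activity between 30% and 70%, or unusable fit; inactive = EC50 beyond ten times the top dose.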

These molecules were tested against Hypoxia-inducible factor 1-alpha (Homo sapiens) (UniProt Q16665) (assay: HIF pathway activation, GFP-HIF1alpha translocation – imaging, fluorescence, U2OS GFP-HIF1alpha, confirmation (AID 434951)). Conditions: U2OS GFP-HIF1alpha nuclear intensity, high-content imaging.
Hypoxia-inducible factor 1-alpha (Homo sapiens), sequence (Q16665 whole entry, looked up): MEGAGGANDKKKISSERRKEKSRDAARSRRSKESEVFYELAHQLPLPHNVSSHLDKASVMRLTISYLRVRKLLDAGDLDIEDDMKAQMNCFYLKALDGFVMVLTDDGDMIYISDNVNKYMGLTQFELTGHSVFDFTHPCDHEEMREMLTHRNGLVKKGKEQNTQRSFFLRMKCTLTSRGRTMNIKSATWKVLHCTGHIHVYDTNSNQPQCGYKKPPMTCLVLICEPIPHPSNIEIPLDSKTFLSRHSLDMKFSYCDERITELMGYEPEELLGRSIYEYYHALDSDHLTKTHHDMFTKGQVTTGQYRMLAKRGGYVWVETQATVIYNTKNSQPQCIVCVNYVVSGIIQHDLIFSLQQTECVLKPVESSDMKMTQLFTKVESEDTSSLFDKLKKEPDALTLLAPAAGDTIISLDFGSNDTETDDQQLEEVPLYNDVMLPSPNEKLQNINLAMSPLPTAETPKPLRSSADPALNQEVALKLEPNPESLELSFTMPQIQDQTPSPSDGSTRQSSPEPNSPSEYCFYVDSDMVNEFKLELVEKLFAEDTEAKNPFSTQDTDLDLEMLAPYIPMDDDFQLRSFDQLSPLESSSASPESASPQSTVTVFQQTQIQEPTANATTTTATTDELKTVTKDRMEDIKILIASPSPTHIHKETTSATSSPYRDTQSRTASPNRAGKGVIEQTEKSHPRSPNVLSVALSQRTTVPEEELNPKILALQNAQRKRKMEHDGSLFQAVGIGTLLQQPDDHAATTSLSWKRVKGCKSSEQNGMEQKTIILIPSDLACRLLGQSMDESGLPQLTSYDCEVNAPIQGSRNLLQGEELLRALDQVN

Row | SMILES | EC50
1 | COc1ccccc1CCNS(=O)(=O)c1cc2c3c(c1)C(C)C(=O)N3CCC2 (configuration not stated) | > 35 µM (inactive)
2 | Oc1ccc2ccccc2c1N=Nc1nccs1 | 5.74 µM
3 | O=c1[nH]c(C2CCN(S(=O)(=O)c3ccc(C(F)(F)F)cc3)CC2)nc2c1nnn2Cc1ccc(F)cc1 | > 35 µM (inactive)
4 | O=C(N/N=C/c1sc2ccccc2c1O)c1cccc2ccccc12 | 31.4 µM
5 | O=C(NC1CCCC1)c1cc(-c2cccs2)on1 | 7.26 µM
6 | Oc1c(CN2CCN(c3ccc(F)cc3)CC2)cc(Cl)c2cccnc12 | 6.07 µM
7 | COc1ccccc1N(CC(=O)NC1CCCCC1)S(C)(=O)=O | > 35 µM (inactive)
8 | Cc1ccc(-c2nc3ccccc3nc2NN)cc1 | > 35 µM (inactive)
9 | CC(C)(C)c1cc(C(=O)N2CCN(c3ncccn3)CC2)ccn1 | > 35 µM (inactive)
10 | C=CCOc1ccc(/C=C2\SC(=Nc3cccnc3)NC2=O)cc1 | > 35 µM (inactive)
11 | Cn1nc(C(=O)NCCCN2CCCCC2)c2c1-c1ccccc1S(=O)(=O)C2 | > 35 µM (inactive)
12 | COCc1c(C(=O)N/N=C(\C)c2ccc(Cl)s2)nnn1-c1nonc1N | > 35 µM (inactive)
13 | O/N=C1/C2C3CC4C5C3C1C5C1(OCCO1)C42 (configuration not stated) | > 35 µM (inactive)
14 | O=C(N/N=C/c1ccc(F)cc1)c1cc(-c2ccc3c(c2)OCO3)n[nH]1 | 16.2 µM
15 | Cc1nnc(SCc2cccc(Cl)c2)n(N)c1=O | > 35 µM (inactive)
16 | CC(=O)Nc1nc(C)c(-c2csc(Nc3ccccn3)n2)s1 | > 35 µM (inactive)
17 | Oc1c(C=C2N=c3ccccc3=N2)sc(=S)n1-c1ccccc1 | > 35 µM (inactive)
18 | Cc1nn(C)cc1S(=O)(=O)NCc1ccc2c(c1)OCO2 | > 35 µM (inactive)
19 | CCOC(=O)C1CCN(C(=O)C2CCCN(c3ncnc4c3nc3n4CCCCC3)C2)CC1 (configuration not stated) | > 35 µM (inactive)
20 | Cc1sc2cc3c(c(C(=O)c4ccccc4)[n+]2c1C)-c1cccc2cccc-3c12 | > 35 µM (inactive)
21 | CC(=O)Nc1ccc(Nc2nc(C)c([N+](=O)[O-])c(Nc3ccc(NC(C)=O)cc3)n2)cc1 | > 35 µM (inactive)
22 | CCN(CC)c1ccc(/C=N/NC(=O)c2c(Cl)cnn2C)c(O)c1 | 2.05 µM
23 | O=C(c1cccc(C(F)(F)F)c1)C1CCCN(C(=O)Cn2cncn2)C1 (configuration not stated) | > 35 µM (inactive)
24 | COc1ccc(O)c(/C=N/NC(=O)c2ccc(OCc3cccc(Br)c3)cc2)c1 | 5.72 µM

Row | SMILES | EC50
25 | CCCC(=O)NC(c1ccc(N(C)C)cc1)c1ccc2cccnc2c1O (configuration not stated) | 6.62 µM
26 | O=C(c1ccc(F)cc1)N(Cc1cccs1)C1CCS(=O)(=O)C1 (configuration not stated) | > 35 µM (inactive)
27 | COc1cc(/C=C/C(=O)c2ccc3c(c2)OCCO3)cc(Br)c1OCC(=O)N(C)C | > 35 µM (inactive)
28 | CCOC(=O)/C(C#N)=C/C=C1\C=Cc2ccccc2N1CC | > 35 µM (inactive)
29 | COc1cccc(/C=N/NC(=O)CNC(=O)C(c2ccccc2)c2ccccc2)c1O | > 35 µM (inactive)
30 | CCC(=O)NC(c1cccs1)c1ccc2cccnc2c1O (configuration not stated) | 5.48 µM
31 | COCCNC(=O)C(=O)NCC1OCCN1S(=O)(=O)c1cc(F)ccc1F (configuration not stated) | > 35 µM (inactive)
32 | Cn1c(NN=O)nc2ccccc21 | 9.61 µM
33 | Nc1ccc(C(=O)N/N=C\c2cc(N=Nc3cccc4ccccc34)ccc2O)cc1 | 35.8 µM
34 | CN(C)CCCN(C(=O)CCS(=O)(=O)c1ccccc1)c1nc2cc3c(cc2s1)OCO3 | > 35 µM (inactive)
35 | CCN(Cc1ccccc1)C(=O)CCNS(=O)(=O)c1ccc2c(c1)CC(C)N2C(C)=O (configuration not stated) | > 35 µM (inactive)
36 | O=C(N/N=C/c1cc(Br)cc(Br)c1O)c1ccncc1 | > 35 µM (inactive)
37 | CC(=O)Nc1ccc2nc(NC(=O)COc3ccccc3C)sc2c1 | > 35 µM (inactive)
38 | COc1ccc(OC)c(C2=Nn3c(nnc3-c3cc(C)[nH]n3)SC2)c1 | > 35 µM (inactive)
39 | Cc1ccc(Oc2ncc(CN3CC(C)OC(C)C3)s2)cc1 (configuration not stated) | > 35 µM (inactive)
40 | COC(=O)C1=C(C)N(C)C(=O)NC1c1cc(Cl)c(O)c(OC)c1 (configuration not stated) | > 35 µM (inactive)
41 | Cc1cc(C)c(C(=O)N2CCCC(N3CCN(c4cccc(C(F)(F)F)c4)CC3)C2)o1 (configuration not stated) | > 35 µM (inactive)
42 | COc1cccc(C(=O)C2CCCN(Cc3ccc4nsnc4c3)C2)c1 (configuration not stated) | > 35 µM (inactive)
43 | CCOC(=O)c1c(-c2ccccc2)oc2cc(CN(C)C)c(O)c(CN(C)C)c12 | 5.53 µM
44 | CCOc1ccc(NC(=O)CSc2nnc(Cn3cnc4ccccc43)n2C)cc1 | > 35 µM (inactive)
45 | CCOc1ccc(NC(=O)C2CCN(S(=O)(=O)c3ccc4c(c3)N(C(C)=O)CCO4)CC2)cc1 | > 35 µM (inactive)
46 | Oc1c(CN2CCc3ccccc3C2)cc(Cl)c2cccnc12 | 7.26 µM
47 | C/C(=N\NC(=O)Cc1ccc(Br)cc1)c1cccnc1 | > 35 µM (inactive)
